Measured values reported in ChEMBL document CHEMBL1944623, “Synthesis, characterization and antiamoebic activity of some hydrazone and azole derivatives bearing pyridyl moiety as a promising heterocyclic scaffold” (Eur J Med Chem, 2012).

Tests used:
Entamoeba histolytica = assay: Antiameobic activity against Entamoeba histolytica HM-1:IMSS after 72 hrs using trypan blue staining method; assay type: functional, organism-based
MCF7 = assay: Cytotoxicity against human MCF7 cells assessed as cell viability after 48 hrs by MTT assay; assay type: cell-based; details: MCF7, 48 h

Structure (SMILES) | IC50 (Entamoeba histolytica) | Activity (Entamoeba histolytica) | IC50 (MCF7)
CC(C)c1ccc(/C=N/NC(=O)c2ccncc2)cc1 | 3.74 µM | – | –
O=C(N/N=C/c1ccc([N+](=O)[O-])cc1)c1ccncc1 [N'-(4-NITROBENZYLIDENE)ISONICOTINOHYDRAZIDE] | 0.37 µM | Dose-dependent effect | > 250 µM
Sc1nnc(-c2ccncc2)n1-c1ccccc1 | 0.16 µM | Dose-dependent effect | > 250 µM
S=c1[nH]nc(-c2ccncc2)o1 | 0.558 µM | Dose-dependent effect | > 250 µM
CN(C)c1ccc(/C=N/NC(=O)c2ccncc2)cc1 [N'-(4-DIMETHYLAMINOBENZYLIDENE)ISONICOTINOHYDRAZIDE] | 5.55 µM | – | –
Cc1ccc(/C=N/NC(=O)c2ccncc2)cc1 [N'-(4-METHYLBENZYLIDENE)ISONICOTINOHYDRAZIDE] | 0.13 µM | Dose-dependent effect | > 250 µM
O=C(N/N=C/c1ccccc1O)c1ccncc1 [SALINAZID] | 4.14 µM | – | –
O=C(N/N=C/c1cccc(Cl)c1)c1ccncc1 [N'-(3-CHLOROBENZYLIDENE)ISONICOTINOHYDRAZIDE] | 12.1 µM | – | –
c1ccc(Nc2nnc(-c3ccncc3)s2)cc1 | 4.43 µM | – | –
COc1ccc(/C=N/NC(=O)c2ccncc2)cc1 | 0.39 µM | Dose-dependent effect | > 250 µM
O=C(N/N=C/c1ccccc1)c1ccncc1 [N'-BENZYLIDENE ISONICOTINOHYDRAZIDE] | 3.84 µM | – | –
Cc1ncc([N+](=O)[O-])n1CCO [METRONIDAZOLE] | – | – | > 250 µM
